Assay results as given in patent publication US7371888B2, “α-(Trifluoromethyl-substituted aryloxy, arylamino, arylthio or arylmethyl)-trifluoromethyl-substituted phenylacetic acids and derivatives as antidiabetic agents” (Metabolex, Inc., priority 2004, dated 2008).

Tested on: C57BL/6J ob/ob mice
Assay: Anti-diabetic activity in the C57BL/6j ob/ob mice model (plasma glucose lowering, insulin level)
Format: in vivo
Conditions: male C57BL/6J ob/ob mice, orally by gavage once a day for 1-4 days; for minimal effective dose: Mus musculus, po, glucose lowering, plasma glucose 6 hours after each dose, read-out: Potency; for Insulin Level compared with vehicle: drug-treated vs vehicle-treated
Protocol: The anti-diabetic activities of the compounds were evaluated in the C57BL/6j ob/ob Mice model. Male, 7-9 weeks old, C57BL/6J ob/ob mice were purchased from The Jackson Laboratory (Bar Harbor, Me., USA). Animals were housed (4-5 mice/cage) under standard laboratory conditions at 22±3° C. temperature and 50±20% relative humidity, and were maintained on a diet of Purina rodent chow and water ad libitum. Prior to treatment, blood was collected from the tail vein of each animal. Mice that had non-fasting plasma glucose levels between 250 and 500 mg/dl were used. Each treatment group consisted of 8-10 mice that were distributed so that the mean glucose levels were equivalent in each group at the start of the study. Mice were dosed orally by gavage once a day for 1-4 days with vehicle and one or more dose of test compound at a dose ranging from 5 to 125 mg/kg. Compounds were delivered in a liquid formulation containing 5% (v/v) dimethyl sulfoxide (DMSO), 1% (v/v) Tween 80® and 0.9% (w/v) methylcellulose. The gavage volume was 10 ml/kg. Blood samples were taken at 6 hours after the each dose and analyzed for plasma glucose. Food intake and body weight were measured daily. Plasma glucose concentrations were determined calorimetrically using a commercial glucose oxidase method (Sigma Chemical Co, St. Louis, Mo., USA). Significant difference between groups (comparing drug-treated to vehicle-treated) was evaluated using the Student unpaired t-test. Table 1 provides the relative potency of some selected compounds of the invention.

| SMILES | minimal effective dose | Insulin Level compared with vehicle |
| --- | --- | --- |
| O=C(O)C(Oc1ccc(C(F)(F)F)cc1)c1ccc(C(F)(F)F)cc1 (centres unmarked) [Compound 83, (4-Trifluoromethyl-phenoxy)-(4-trifluoromethyl-phenyl)-acetic acid] | ≤ 125 mg/kg | Lower |
| O=C(O)C(Oc1ccc(C(F)(F)F)cc1)c1cccc(C(F)(F)F)c1 (centres unmarked) [Compound 39, (4-Trifluoromethyl-phenoxy)-(3-trifluoromethyl-phenyl)-acetic acid] | – | Lower |
| O=C(O)C(Oc1ccc(C(F)(F)F)cc1Cl)c1cccc(C(F)(F)F)c1 (centres unmarked) [Compound 85, (2-Chloro-4-trifluoromethyl-phenoxy)-(3-trifluoromethyl-phenyl)-acetic acid] | ≤ 125 mg/kg | Lower |
| CC(=O)NCCOC(=O)C(Oc1cccc(C(F)(F)F)c1)c1ccc(C(F)(F)F)cc1 (centres unmarked) [Compound 142] | ≤ 125 mg/kg | Lower |
| OCC(Oc1ccc(C(F)(F)F)cc1Cl)c1ccc(C(F)(F)F)cc1 (centres unmarked) [Compound 128] | ≤ 125 mg/kg | Lower |
| O=C(O)C(Oc1ccc(C(F)(F)F)cc1)c1cccc(C(F)(F)F)c1 (single isomer, unassigned; (-)) [(−)-39, (4-trifluoromethyl-phenoxy)-(3-trifluoromethyl-phenyl)-acetic acid] | – | Lower |
| CC(=O)NCCOC(=O)C(Oc1ccc(C(F)(F)F)cc1)c1cccc(C(F)(F)F)c1 (centres unmarked) [Compound 136, (4-trifluoromethyl-phenoxy)-(3-trifluoromethyl-phenyl)-acetic acid 2-acetylamino-ethyl ester] | ≤ 125 mg/kg | Lower |
| CC(=O)NCCOC(=O)C(Oc1cccc(C(F)(F)F)c1)c1ccccc1C(F)(F)F (centres unmarked) [Compound 147] | > 125 mg/kg | Lower |
| CC(=O)NCCOC(=O)C(Oc1cccc(C(F)(F)F)c1)c1cccc(C(F)(F)F)c1 (centres unmarked) [Compound 144] | ≤ 125 mg/kg | Lower |
| O=C(O)C(Oc1cc(C(F)(F)F)cc(C(F)(F)F)c1)c1ccc(C(F)(F)F)cc1 (centres unmarked) [Compound 81] | ≤ 125 mg/kg | Lower |
| O=C(O)C(Oc1cccc(C(F)(F)F)c1)c1ccc(C(F)(F)F)cc1 (centres unmarked) [Compound 86, (3-trifluoromethyl-phenoxy)-(4-trifluoromethyl-phenyl)-acetic acid] | ≤ 125 mg/kg | Lower |
| CC(=O)NCCOC(=O)C(Oc1ccc(C(F)(F)F)cc1)c1ccc(C(F)(F)F)cc1 (centres unmarked) [Compound 145] | ≤ 125 mg/kg | Lower |
| CC(=O)NCCOC(=O)C(Oc1ccccc1C(F)(F)F)c1ccc(C(F)(F)F)cc1 (centres unmarked) [Compound 146] | > 125 mg/kg | Lower |
| O=C(O)C(Oc1ccc(C(F)(F)F)cc1Cl)c1ccc(C(F)(F)F)cc1 (centres unmarked) [Compound 89, (2-Chloro-4-trifluoromethyl-phenoxy)-(4-trifluoromethyl-phenyl)-acetic acid] | ≤ 125 mg/kg | Lower |
| CC(Oc1ccc(C(F)(F)F)cc1)(C(=O)O)c1ccc(C(F)(F)F)cc1 (centres unmarked) [Compound 121, 2-(4-Trifluoromethyl-phenoxy)-2-(4-trifluoromethyl-phenyl)-propionic acid] | ≤ 125 mg/kg | Lower |
| O=C(O)C(Oc1ccc(C(F)(F)F)cn1)c1cccc(C(F)(F)F)c1 (centres unmarked) [Compound 100, (3-trifluoromethyl-phenyl)-(5-trifluoromethyl-pyridin-2-yloxy)-acetic acid] | ≤ 125 mg/kg | Lower |
| CC(Oc1ccc(C(F)(F)F)cc1)(C(=O)O)c1cccc(C(F)(F)F)c1 (centres unmarked) [Compound 120, 2-(4-trifluoromethyl-phenoxy)-2-(3-trifluoromethyl-phenyl)-propionic acid] | ≤ 125 mg/kg | Lower |
| CC(=O)NCCOC(=O)C(Oc1cc(C(F)(F)F)cc(C(F)(F)F)c1)c1ccc(C(F)(F)F)cc1 (centres unmarked) [Compound 143] | ≤ 125 mg/kg | Lower |
| O=C(O)C(Oc1ccc(C(F)(F)F)cc1)c1cccc(C(F)(F)F)c1 (single isomer, unassigned; (+)) [(+)-39, (4-trifluoromethyl-phenoxy)-(3-trifluoromethyl-phenyl)-acetic acid] | – | Lower |
